Measurements reported in article PMC5931096, “A Phase I study of the novel immunomodulatory agent PG545 (pixatimod) in subjects with advanced solid tumours” (British Journal of Cancer, 2018).
Entries after “also recorded” stand apart in the source; their conditions may differ. Like-named read-outs stand apart in the source and are kept apart here.

Columns and labels:
[1] = test system: heparanase; conditions: cited from earlier work
[2] = test system: pDC and NK cells; test: Flow cytometry of PBMC for DC and NK cell activation; assay type: in vivo, human
Protocol: (§1) Plasma and peripheral blood mononuclear cell (PBMC) samples were obtained at various points for PD assessment with the exception of the 25 mg cohort, where PBMC were not collected. Plasma samples were analysed for the concentration of various markers, including cytokines, chemokines and heparanase using commercial ELISA (LifeSpan Biosciences, Seattle, WA), and array kits (Quansys, Logan, UT).
Cryopreserved PBMC samples were analysed by flow cytometry for changes in abundance and activation status of DC and NK cells at day 3 post-treatment compared with pre-dose samples (day 1). Given the stimulatory nature of PG545 via TLR9 reported in mice,[18] efforts were primarily focussed on the assessments of pDC and NK cells though certain subjects with available sample underwent additional analyses. To assess pDC, cells were stained with antibodies to HLADR-peCy7, CD303-FITC, IFNα-647 (BD Biosciences, Franklin Lakes, NJ). To assess NK cells, cells were stained with antibodies to CD335-PE, CD3-APC, IFNγ-FITC (BD Biosciences). All intracellular cytokine staining samples were stimulated by 100 ng/mL PMA, 100 ng/mL ionomycin and 5 μg/mL Brefeldin A for 4 h at 37 °C. Samples were acquired using FACSCanto flow cytometers (BD Biosciences).

[3] = test system: plasma IFNγ, TNFα, IP-10 and MCP-1; test: Plasma cytokine/chemokine biomarkers (ELISA, array kits); assay type: in vivo, human
Protocol: as §1

[4] = Plasma pharmacokinetics (LC-MS/MS, population PK model and NCA); assay type: in vivo, human; conditions: for AUC / Cmax / AUC(0-t) / half-life: human, plasma, intravenous
Protocol: Plasma samples were obtained for the first (day 1) and fourth (day 22) doses, as follows: (1) pre-dosing (no more than 4 h prior to infusion start); (2) mid-point of infusion; prior to completion of infusion; 30 min post-infusion; then 2, 4, 6, 24, 48, 72, 144 and 168 h post-infusion. Samples were analysed for PG545 concentration using a validated liquid chromatography with tandem mass spectrometry (LC-MS/MS) assay.[13] A population PK model was developed using NONMEM® and individual non-compartmental analysis-type exposure parameter estimation was also performed.

[5] = test system: advanced solid malignancies; test: Clinical activity by RECIST 1.1; assay type: in vivo, human
Protocol: All patients were assessed for safety, those who received at least one dose of PG545 were evaluated for efficacy. Safety assessment included the incidence of all adverse events (AEs), irrespective of relationship to study drug, according to the National Cancer Institute Common Terminology Criteria for Adverse Events, version 4.0, and the incidence of patients experiencing dose modifications and/or premature discontinuation of study drug. Dose-limiting toxicities (DLTs) used to determine the MTD were defined as occurring during Cycle 1 of treatment only and related to PG545 according to investigator assessment. If no DLT occurred in the first three subjects, the next three-subject cohort was enrolled at the next highest available dose level. If a single DLT occurred, an additional three subjects was enrolled at the same dose level. Dose escalation continued until two subjects of the cohort experienced a DLT; this was defined as the toxic dose level. The dose-escalation phase was completed and MTD determined by reducing the dose to the next lowest dose compared to the toxic dose and expanding this cohort to at least 6 subjects.
Subjects with measurable disease were assessed by computed tomography at baseline and every 8 weeks according to Response Evaluation Criteria in Solid Tumours (RECIST), version 1.1 criteria.

[6] = 100 mg, dose number 1, NCA mean
[7] = 100 mg, dose number 4, NCA mean
[8] = 150 mg, dose number 1, NCA mean
[9] = 150 mg, dose number 4, NCA mean

CC(C)CCC[C@@H](C)[C@H]1CC[C@H]2[C@@H]3CC[C@H]4C[C@@H](O[C@@H]5O[C@H](COS(=O)(=O)O)[C@@H](O[C@H]6O[C@H](COS(=O)(=O)O)[C@@H](O[C@H]7O[C@H](COS(=O)(=O)O)[C@@H](O[C@H]8O[C@H](COS(=O)(=O)O)[C@@H](OS(=O)(=O)O)[C@H](OS(=O)(=O)O)[C@H]8OS(=O)(=O)O)[C@H](OS(=O)(=O)O)[C@H]7OS(=O)(=O)O)[C@H](OS(=O)(=O)O)[C@H]6OS(=O)(=O)O)[C@H](OS(=O)(=O)O)[C@H]5OS(=O)(=O)O)CC[C@]4(C)[C@H]3CC[C@]12C [PG545]
Anti-heparanase activity [1]: strong anti-heparanase activity
pDC and NK cell activation parameters ([2]; 150 mg cohort): unaffected or modestly responsive
Subjects with at least two-fold increased numbers of activated pDC or NK cells ([2]; 50 and 100 mg, 2 days after initial dose): six of the ten
Increases in TNFα, IL-6 and IL-8 responses ([3]; 150 mg vs 100 mg cohort averages): strikingly higher at 150 mg
Increase in plasma IFNγ, TNFα, IP-10 (CXCL10) and MCP-1 (CCL2) ([3]; after initial dose): up to 25 fold
Exposure (AUC0–168 and Cmax) relative to dose ([4]; 150 mg dose level): sub-proportional
Dose proportionality of exposure ([4]; 25-150 mg): proportional up to 100 mg; also recorded: general dose-proportionate exposure up to 100 mg
AUC ([4]; 25 mg, dose number 1, NCA mean): 432 µg·h/mL
Cmax ([4]; 25 mg, dose number 1, NCA mean): 9600 ng/mL
AUC(0-t) ([4]; 25 mg, dose number 1, NCA mean, read-out: AUC0-96): 339 µg·h/mL
AUC(0-t) ([4]; 25 mg, dose number 1, NCA mean, read-out: AUC0-last): 465 µg·h/mL
half-life ([4]; 25 mg, dose number 1, NCA mean, read-out: t1/2 (converted)): 149 h
AUC ([4]; 25 mg, dose number 4, NCA mean): 841 µg·h/mL
Cmax ([4]; 25 mg, dose number 4, NCA mean): 12400 ng/mL
AUC(0-t) ([4]; 25 mg, dose number 4, NCA mean, read-out: AUC0-96): 589 µg·h/mL
AUC(0-t) ([4]; 25 mg, dose number 4, NCA mean, read-out: AUC0-last): 611 µg·h/mL
half-life ([4]; 25 mg, dose number 4, NCA mean, read-out: t1/2 (converted)): 123 h
AUC ([4]; 50 mg, dose number 1, NCA mean): 695 µg·h/mL
Cmax ([4]; 50 mg, dose number 1, NCA mean): 15600 ng/mL
AUC(0-t) ([4]; 50 mg, dose number 1, NCA mean, read-out: AUC0-96): 539 µg·h/mL
AUC(0-t) ([4]; 50 mg, dose number 1, NCA mean, read-out: AUC0-last): 710 µg·h/mL
half-life ([4]; 50 mg, dose number 1, NCA mean, read-out: t1/2 (converted)): 183 h
AUC ([4]; 50 mg, dose number 4, NCA mean): 1640 µg·h/mL
Cmax ([4]; 50 mg, dose number 4, NCA mean): 21700 ng/mL
AUC(0-t) ([4]; 50 mg, dose number 4, NCA mean, read-out: AUC0-96): 1120 µg·h/mL
AUC(0-t) ([4]; 50 mg, dose number 4, NCA mean, read-out: AUC0-last): 1690 µg·h/mL
half-life ([4]; 50 mg, dose number 4, NCA mean, read-out: t1/2 (converted)): 228 h
AUC [4, 6]: 1210 µg·h/mL
Cmax [4, 6]: 29500 ng/mL
AUC(0-t) ([4]; 100 mg, dose number 1, NCA mean, read-out: AUC0-96): 974 µg·h/mL
AUC(0-t) ([4]; 100 mg, dose number 1, NCA mean, read-out: AUC0-last): 1210 µg·h/mL
half-life ([4]; 100 mg, dose number 1, NCA mean, read-out: t1/2 (converted)): 133 h
AUC [4, 7]: 2250 µg·h/mL
Cmax [4, 7]: 35600 ng/mL
AUC(0-t) ([4]; 100 mg, dose number 4, NCA mean, read-out: AUC0-96): 1610 µg·h/mL
AUC(0-t) ([4]; 100 mg, dose number 4, NCA mean, read-out: AUC0-last): 2380 µg·h/mL
half-life ([4]; 100 mg, dose number 4, NCA mean, read-out: t1/2 (converted)): 133 h
AUC [4, 8]: 1500 µg·h/mL
Cmax [4, 8]: 37100 ng/mL
AUC(0-t) ([4]; 150 mg, dose number 1, NCA mean, read-out: AUC0-96): 1190 µg·h/mL
AUC(0-t) ([4]; 150 mg, dose number 1, NCA mean, read-out: AUC0-last): 1440 µg·h/mL
half-life ([4]; 150 mg, dose number 1, NCA mean, read-out: t1/2 (converted)): 117 h
AUC [4, 9]: 3190 µg·h/mL
Cmax [4, 9]: 48600 ng/mL
AUC(0-t) ([4]; 150 mg, dose number 4, NCA mean, read-out: AUC0-96): 2230 µg·h/mL
AUC(0-t) ([4]; 150 mg, dose number 4, NCA mean, read-out: AUC0-last): 2780 µg·h/mL
half-life ([4]; 150 mg, dose number 4, NCA mean, read-out: t1/2 (converted)): 128 h
half-life ([4]; across all subjects, population PK model, read-out: Mean t1/2 (converted)): 141 h
Between subject variability of CL ([4]; population PK model): 75.6 % CV
Between subject variability of Vp ([4]; population PK model): 61.2 % CV
Apparent central volume (Vc) ([4]; population PK model, IV): 2.98 L
Apparent clearance (CL) ([4]; population PK model, IV): 0.0165 L/h
Apparent peripheral volume (Vp) ([4]; population PK model, IV): 11.9 L
Estimated median duration of SD ([5]; 95% confidence interval from 39 days to 62 days): 57 days
Disease control rate ([5]; evaluable subjects (six of sixteen), at 8 weeks): 38%
Best response ([5]; human, in vivo): stable disease up to 24 weeks
Objective responses ([5]; monotherapy): No objective responses were reported
Patients with stable disease (SD) at 8 weeks ([5]; of sixteen patients assessed, RECIST 1.1): six
